Experimental data taken from patent publication US11352340B2, “Pyridine and pyridimine compounds as PI3K-gamma inhibitors” (Incyte Corporation, priority 2016, dated 2022).
Counter-ions that a name gives are not always drawn. Like-named read-outs stand apart in the source and are kept apart here.

Legend:
[1] = tested on: Phosphorylated Ribosomal Protein S6 (RPS6) in THP-1 cells; experiment: THP-1 RPS6 ELISA Assay; type: cell-based, Human; details: MCP-1 stimulated, phospho-RPS6 ELISA, read-out: THP p-RPS6 ELISA IC50
Procedure, shortened: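 Phospho-RPS6 in lysates measured by ELISA at 450 nm, corrected at 540 nm, after MCP-1 challenge (10 nM, 15 min) of THP-1 cells that were starved overnight and exposed to test compound for 2 h at 37° C, 2×10^5 cells/well. Curve fit of percent inhibition gives IC50.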

[2] = biological target: PI3Kδ (p110δ/p85α) Recombinant Human Protein (Homo sapiens (Human), UniProt O00329); experiment: PI3Kδ Scintillation Proximity Assay; type: biochemical; details: read-out: PI3K-delta SPA IC50
Procedure, shortened: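 IC50 was fitted to percent solvent-control activity from SPA scintillation counts after WGA bead capture of 33P-labelled lipid product. Reaction: 120 min, room temperature, 3.4 nM p110δ/p85α, 20 μM PIP2, 2 μM ATP with tracer, MOPS pH 6.7 buffer containing MgCl2, DTT, CHAPS, 2% DMSO.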

[3] = biological target: PI3Kγ (p110γ) Recombinant Human Protein (Homo sapiens (Human), UniProt P48736); experiment: PI3K-γ Scintillation Proximity Assay; type: biochemical; details: read-out: PI3K-gamma SPA IC50
Procedure, shortened: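 Radiometric SPA: reaction at room temperature for 120 min using 2 μM ATP with [γ-33P]ATP tracer, 20 μM PIP2 substrate and 13 nM human PI3Kγ (MOPS pH 6.7, MgCl2, DTT, CHAPS; 2% DMSO). EDTA quench with WGA beads, scintillation count, and IC50 fit of percent-of-control activity.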

Chain of PI3Kγ (p110γ) Recombinant Human Protein (P48736 whole entry): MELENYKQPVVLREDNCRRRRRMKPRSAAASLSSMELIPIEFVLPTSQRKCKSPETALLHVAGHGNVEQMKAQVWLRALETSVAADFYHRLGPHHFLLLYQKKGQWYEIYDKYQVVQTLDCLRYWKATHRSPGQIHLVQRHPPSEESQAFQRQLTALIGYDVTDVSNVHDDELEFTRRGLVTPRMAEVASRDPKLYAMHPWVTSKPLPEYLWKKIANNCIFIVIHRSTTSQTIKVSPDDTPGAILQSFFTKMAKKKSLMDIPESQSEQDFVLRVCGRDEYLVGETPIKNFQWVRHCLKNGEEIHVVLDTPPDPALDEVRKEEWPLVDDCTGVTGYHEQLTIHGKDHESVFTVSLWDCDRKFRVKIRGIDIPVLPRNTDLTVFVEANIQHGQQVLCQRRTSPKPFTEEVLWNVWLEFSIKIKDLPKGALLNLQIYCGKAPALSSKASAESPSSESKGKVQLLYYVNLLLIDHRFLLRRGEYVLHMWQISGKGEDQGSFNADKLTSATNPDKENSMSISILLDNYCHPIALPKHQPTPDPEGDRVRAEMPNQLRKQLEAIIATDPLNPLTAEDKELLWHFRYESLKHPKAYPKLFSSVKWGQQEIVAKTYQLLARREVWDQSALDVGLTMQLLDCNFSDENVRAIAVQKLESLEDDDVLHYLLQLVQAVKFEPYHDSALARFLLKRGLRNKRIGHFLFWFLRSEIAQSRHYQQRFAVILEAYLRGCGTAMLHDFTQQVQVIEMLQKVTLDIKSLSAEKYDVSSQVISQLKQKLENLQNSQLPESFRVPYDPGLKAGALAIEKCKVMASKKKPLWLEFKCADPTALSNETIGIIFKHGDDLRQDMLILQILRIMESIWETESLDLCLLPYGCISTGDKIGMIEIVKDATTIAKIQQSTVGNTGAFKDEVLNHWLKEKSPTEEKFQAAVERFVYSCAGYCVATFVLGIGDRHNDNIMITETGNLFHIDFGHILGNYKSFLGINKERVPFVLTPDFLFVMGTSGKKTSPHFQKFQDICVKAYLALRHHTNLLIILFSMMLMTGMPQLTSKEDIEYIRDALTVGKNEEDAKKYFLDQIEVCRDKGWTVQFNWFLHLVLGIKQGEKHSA
Chain of PI3Kδ (p110δ/p85α) Recombinant Human Protein (O00329 whole entry): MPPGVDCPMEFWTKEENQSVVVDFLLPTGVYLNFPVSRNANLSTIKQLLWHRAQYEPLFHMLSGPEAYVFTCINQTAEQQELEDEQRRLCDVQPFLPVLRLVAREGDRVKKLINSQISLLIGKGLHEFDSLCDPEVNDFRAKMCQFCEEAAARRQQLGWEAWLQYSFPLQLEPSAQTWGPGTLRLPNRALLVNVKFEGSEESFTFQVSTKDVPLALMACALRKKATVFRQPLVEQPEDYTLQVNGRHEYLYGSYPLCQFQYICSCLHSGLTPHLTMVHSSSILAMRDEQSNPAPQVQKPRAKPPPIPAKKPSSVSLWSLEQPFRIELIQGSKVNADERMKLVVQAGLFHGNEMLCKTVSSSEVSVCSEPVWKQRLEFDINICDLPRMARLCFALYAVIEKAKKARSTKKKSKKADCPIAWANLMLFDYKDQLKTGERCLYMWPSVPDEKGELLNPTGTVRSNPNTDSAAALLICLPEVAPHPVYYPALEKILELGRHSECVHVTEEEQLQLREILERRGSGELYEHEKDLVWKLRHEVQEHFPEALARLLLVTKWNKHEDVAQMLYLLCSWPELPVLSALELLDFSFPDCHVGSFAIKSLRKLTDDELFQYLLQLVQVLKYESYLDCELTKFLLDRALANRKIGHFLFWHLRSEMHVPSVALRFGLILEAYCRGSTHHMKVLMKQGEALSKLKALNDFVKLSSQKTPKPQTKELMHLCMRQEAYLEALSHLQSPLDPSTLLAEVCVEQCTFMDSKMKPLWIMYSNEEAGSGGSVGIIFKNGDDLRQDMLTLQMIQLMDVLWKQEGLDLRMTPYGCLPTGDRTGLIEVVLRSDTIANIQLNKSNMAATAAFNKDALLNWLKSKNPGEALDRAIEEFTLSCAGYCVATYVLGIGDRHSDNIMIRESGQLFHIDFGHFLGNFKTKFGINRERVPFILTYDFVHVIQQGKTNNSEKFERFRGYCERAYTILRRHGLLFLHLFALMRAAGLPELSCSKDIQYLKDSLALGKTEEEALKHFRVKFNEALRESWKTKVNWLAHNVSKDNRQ
Chain of PI3Kδ (p110δ/p85α) Recombinant Human Protein (P27986 whole entry partner): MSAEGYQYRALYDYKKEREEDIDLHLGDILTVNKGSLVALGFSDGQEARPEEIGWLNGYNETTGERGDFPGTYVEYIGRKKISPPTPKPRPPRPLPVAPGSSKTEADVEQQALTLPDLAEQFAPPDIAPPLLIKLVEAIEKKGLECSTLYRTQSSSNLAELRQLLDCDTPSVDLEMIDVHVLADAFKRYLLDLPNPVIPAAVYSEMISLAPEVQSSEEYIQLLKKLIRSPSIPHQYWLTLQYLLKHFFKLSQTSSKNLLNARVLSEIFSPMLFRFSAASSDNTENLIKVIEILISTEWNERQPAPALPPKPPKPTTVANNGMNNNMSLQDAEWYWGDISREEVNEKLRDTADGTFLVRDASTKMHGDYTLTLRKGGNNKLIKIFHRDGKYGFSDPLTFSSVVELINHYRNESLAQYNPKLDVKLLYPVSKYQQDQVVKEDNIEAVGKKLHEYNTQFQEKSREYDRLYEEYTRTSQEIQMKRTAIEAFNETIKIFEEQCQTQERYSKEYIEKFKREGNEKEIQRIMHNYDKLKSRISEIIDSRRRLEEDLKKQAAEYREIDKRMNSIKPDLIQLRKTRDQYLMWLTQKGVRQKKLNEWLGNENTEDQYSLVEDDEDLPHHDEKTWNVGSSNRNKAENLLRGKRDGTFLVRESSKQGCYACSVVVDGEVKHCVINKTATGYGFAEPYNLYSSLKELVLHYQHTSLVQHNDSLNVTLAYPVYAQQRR

| IC50 ([1]; Homo sapiens) [nM] | IC50 [2] [nM] | IC50 [3] [nM] | Compound | IC50 [1] [nM] |
| --- | --- | --- | --- | --- |
| ≤ 300 | ≤ 50 | ≤ 50 | Cc1[nH]c(-c2cc(-c3cncc(N4CCOCC4)c3)ccn2)nc1C(=O)NC1CCCC1 [Example 258, N-Cyclopentyl-5-methyl-2-(5-morpholin-4-yl-3,4′-bipyridin-2′-yl)-1H-imidazole-4-carboxamide] |  |
| 300 to 1000 | ≤ 50 | ≤ 50 | Cc1[nH]c(-c2cc(-c3cncc(N4CCOCC4)c3)ccn2)nc1C(=O)N1CC(C(F)(F)F)C1 [Example 262, 2′-(5-Methyl-4-{[3-(trifluoromethyl)azetidin-1-yl]carbonyl}-1H-imidazol-2-yl)-5-morpholin-4-yl-3,4′-bipyridine] |  |
| 1000 to 5000 | ≤ 50 | ≤ 100 | Cc1[nH]c(-c2cc(-c3cncc(N4CCOCC4)c3)ccn2)nc1C(=O)N1CC(NC(=O)OC(C)(C)C)C1 [Example 264, tert-Butyl (1-{[5-methyl-2-(5-morpholin-4-yl-3,4′-bipyridin-2′-yl)-1H-imidazol-4-yl]carbonyl}azetidin-3-yl)carbamate] |  |
| 300 to 1000 | ≤ 50 | ≤ 50 | Cc1[nH]c(-c2cc(-c3cncc(N4CCOCC4)c3)ccn2)nc1C(=O)NC1CCCCC1 [Example 265, N-Cyclohexyl-5-methyl-2-(5-morpholin-4-yl-3,4′-bipyridin-2′-yl)-1H-imidazole-4-carboxamide] |  |
| ≤ 300 | ≤ 50 | ≤ 50 | Cc1[nH]c(-c2cc(-c3cncc(N4CCOCC4)c3)ccn2)nc1C(=O)NC(C)(C)C [Example 266, N-(tert-Butyl)-5-methyl-2-(5-morpholin-4-yl-3,4′-bipyridin-2′-yl)-1H-imidazole-4-carboxamide] |  |
| 1000 to 5000 | ≤ 50 | ≤ 50 | Cc1[nH]c(-c2cc(-c3cncc(N4CCOCC4)c3)ccn2)nc1C(=O)N1CC(C)(C)C1 [Example 267, 2′-{4-[(3,3-Dimethylazetidin-1-yl)carbonyl]-5-methyl-1H-imidazol-2-yl}-5-morpholin-4-yl-3,4′-bipyridine] |  |
| 300 to 1000 | ≤ 50 | ≤ 50 | Cc1[nH]c(-c2cc(-c3cncc(N4CCOCC4)c3)ccn2)nc1C(=O)NC(C)C [Example 268, N-Isopropyl-5-methyl-2-(5-morpholin-4-yl-3,4′-bipyridin-2′-yl)-1H-imidazole-4-carboxamide trifluoroacetate salt] |  |
| 300 to 1000 | ≤ 50 | ≤ 50 | Cc1[nH]c(-c2cc(-c3cncc(N4CCOCC4)c3)ccn2)nc1C(=O)NC1CCOCC1 [Example 269, 5-Methyl-2-(5-morpholin-4-yl-3,4′-bipyridin-2′-yl)-N-(tetrahydro-2H-pyran-4-yl)-1H-imidazole-4-carboxamide trifluoroacetate salt] |  |
| 300 to 1000 | ≤ 50 | ≤ 50 | Cc1[nH]c(-c2cc(-c3cncc(N4CCOCC4)c3)ccn2)nc1C(=O)N[C@@H]1CCOC1 [Example 270, 5-Methyl-2-(5-morpholin-4-yl-3,4′-bipyridin-2′-yl)-N-[(3R)-tetrahydrofuran-3-yl]-1H-imidazole-4-carboxamide trifluoroacetate salt] |  |
| 300 to 1000 | ≤ 50 | ≤ 50 | Cc1[nH]c(-c2cc(-c3cncc(N4CCOCC4)c3)ccn2)nc1C(=O)N[C@H]1CCOC1 [Example 271, 5-Methyl-2-(5-morpholin-4-yl-3,4′-bipyridin-2′-yl)-N-[(3S)-tetrahydrofuran-3-yl]-1H-imidazole-4-carboxamide trifluoroacetate salt] |  |
| ≤ 300 | ≤ 50 | ≤ 50 | Cc1[nH]c(-c2cc(-c3cncc(N4CCOCC4)c3)ccn2)nc1C(=O)NCc1ccccc1 [Example 272, N-Benzyl-5-methyl-2-(5-morpholin-4-yl-3,4′-bipyridin-2′-yl)-1H-imidazole-4-carboxamide trifluoroacetate salt] |  |
| ≤ 300 | ≤ 50 | ≤ 50 | Cc1[nH]c(-c2cc(-c3cncc(N4CCOCC4)c3)ccn2)nc1C(=O)N[C@@H](C)c1ccccc1 [Example 273, 5-Methyl-2-(5-morpholin-4-yl-3,4′-bipyridin-2′-yl)-N-[(1S)-1-phenylethyl]-1H-imidazole-4-carboxamide trifluoroacetate salt] |  |
| 1000 to 5000 | ≤ 50 | ≤ 50 | Cc1[nH]c(-c2cc(-c3cncc(N4CCOCC4)c3)ccn2)nc1C(=O)N[C@H](C)c1ccccc1 [Example 274, 5-Methyl-2-(5-morpholin-4-yl-3,4′-bipyridin-2′-yl)-N-[(1R)-1-phenylethyl]-1H-imidazole-4-carboxamide trifluoroacetate salt] |  |
| 300 to 1000 | ≤ 50 | ≤ 50 | Cc1[nH]c(-c2cc(-c3cncc(N4CCOCC4)c3)ccn2)nc1C(=O)NC1C2CC3CC(C2)CC1C3 (stereo not drawn) [Example 278, N-2-Adamantyl-5-methyl-2-(5-morpholin-4-yl-3,4′-bipyridin-2′-yl)-1H-imidazole-4-carboxamide trifluoroacetate salt] |  |
| ≤ 300 | ≤ 50 | ≤ 100 | Cc1[nH]c(-c2cc(-c3cncc(N4CCOCC4)c3)ccn2)nc1C(=O)N[C@H]1CCN(Cc2ccccc2)C1 [Example 279, N-[(3S)-1-Benzylpyrrolidin-3-yl]-5-methyl-2-(5-morpholin-4-yl-3,4′-bipyridin-2′-yl)-1H-imidazole-4-carboxamide trifluoroacetate salt] |  |
| ≤ 300 | ≤ 50 | ≤ 50 | Cc1[nH]c(-c2cc(-c3cncc(N4CCOCC4)c3)ccn2)nc1C(=O)NC1CCSCC1 [Example 281, 5-Methyl-2-(5-morpholin-4-yl-3,4′-bipyridin-2′-yl)-N-(tetrahydro-2H-thiopyran-4-yl)-1H-imidazole-4-carboxamide trifluoroacetate salt] |  |
| 300 to 1000 | ≤ 50 | ≤ 50 | Cc1[nH]c(-c2cc(-c3cncc(N4CCOCC4)c3)ccn2)nc1C(=O)NC1Cc2ccccc2C1 [Example 282, N-(2,3-Dihydro-1H-inden-2-yl)-5-methyl-2-(5-morpholin-4-yl-3,4′-bipyridin-2′-yl)-1H-imidazole-4-carboxamide trifluoroacetate salt] |  |
| > 5000 | > 500 | ≤ 50 | Cc1nc(-c2cc(-c3cnn(Cc4ccc(Cl)cc4)c3)ccn2)[nH]c1C [Example 294, 4-(1-(4-Chlorobenzyl)-1H-pyrazol-4-yl)-2-(4,5-dimethyl-1H-imidazol-2-yl)pyridine Trifluoroacetate Salt] |  |
| 1000 to 5000 | ≤ 500 | ≤ 50 | Cc1[nH]c(-c2cc(-c3cnn(Cc4ccc(Cl)cc4)c3)ccn2)nc1C(=O)N[C@H]1CCOC1 [Example 295] |  |
| > 5000 | > 500 | ≤ 50 | CNC(=O)c1nc(-c2cc(-c3cnn(Cc4ccc(Cl)cc4)c3)ccn2)[nH]c1C [Example 296] |  |
| > 5000 | > 500 | ≤ 50 | Cc1[nH]c(-c2cc(-c3cnn(Cc4ccc(Cl)cc4)c3)ccn2)nc1C#N [Example 297, 2-{4-[1-(4-Chlorobenzyl)-1H-pyrazol-4-yl]pyridin-2-yl}-5-methyl-1H-imidazole-4-carbonitrile Trifluoroacetate Salt] |  |
| ≤ 300 | ≤ 50 | ≤ 50 | Cc1cnc(-c2cc(-c3cncc(S(=O)(=O)N[C@H]4CC[C@](C)(O)CC4)c3)ccn2)[nH]1 [Example 298, N-((1r,4r)-4-Hydroxy-4-methylcyclohexyl)-2′-(4-methyl-1H-imidazol-2-yl)-[3,4′-bipyridine]-5-sulfonamide Trifluoroacetate Salt] |  |

| Compound | IC50 ([1]; Homo sapiens) [nM] | IC50 [2] [nM] | IC50 [3] [nM] | IC50 [1] [nM] |
| --- | --- | --- | --- | --- |
| COC[C@H](NC(=O)c1nc(-c2cc(-c3cncc(N4CCOCC4)c3)ccn2)[nH]c1C)c1ccccc1 [Example 275, N-[(1R)-2-Methoxy-1-phenylethyl]-5-methyl-2-(5-morpholin-4-yl-3,4′-bipyridin-2′-yl) 1H-imidazole-4-carboxamide trifluoroacetate salt] |  | ≤ 50 | ≤ 50 | ≤ 300 |
| COC[C@@H](NC(=O)c1nc(-c2cc(-c3cncc(N4CCOCC4)c3)ccn2)[nH]c1C)c1ccccc1 [Example 276, N-[(1S)-2-Methoxy-1-phenylethyl]-5-methyl-2-(5-morpholin-4-yl-3,4′-bipyridin-2′-yl) 1H-imidazole-4-carboxamide trifluoroacetate salt] |  | ≤ 50 | ≤ 100 | ≤ 300 |
| Cc1c[nH]c(-c2cc(-c3cncc(S(=O)(=O)N[C@H]4CC[C@H](O)CC4)c3)ccn2)n1 [Example 299, N-((1r,4r)-4-Hydroxycyclohexyl)-2′-(4-methyl-1H-imidazol-2-yl)-[3,4′-bipyridine]-5-sulfonamide trifluoroacetate salt] |  | ≤ 50 | ≤ 50 | ≤ 300 |
